Measurements published in US9840547B2, “Hepatic insulin sensitizing substance and test meal for insulin sensitization” (SciMar Ltd., priority 2013, dated 2017).

How the values were obtained:
[1] = Time course of hypoglycemic action in humans; assay type: in vivo; conditions: after an intravenous injection
[2] = Time course of hypoglycemic action in rats; assay type: in vivo; conditions: after an intravenous injection
[3] = system: cultured L6 skeletal muscle cells; assay: Plasma HISS activity on glucose uptake in cultured L6 skeletal muscle cells (2-NBDG bioassay); assay type: cell-based; conditions: plasma insulin concentration versus RFU, linear regression
Description: Individual plasma samples were tested in 1-3 wells/sample with 2 measurements/well.

[4] = literature; cited from earlier work

Row | Substance | time at which action returns to baseline [1] | time at which action returns to baseline [2] | stimulation of glucose uptake response in L6 cells [3] | hypoglycemic action [4]
1 | insulin | 90 min | 35 min | not stimulated by insulin | 
2 | bone morphogenetic protein 9 |  |  |  | no rapid hypoglycemic effect
